Consider 21 compounds from PubChem BioAssay AID434987 (Southern Research Specialized Biocontainment Screening …, 2010).

Molecules are shown by their SMILES. Calls of active or inactive are those of the source. No rule for the calls is given here.

In this test the test system is M. tuberculosis H37Rv growth inhibition with meropenem. As to the kind of experiment: dose response, H37Rv, with and without meropenem (AID 434987).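 Also: growth over 7 days at 37 °C before Alamar Blue read on day 9.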
[1] abbreviates: M. tuberculosis H37Rv growth inhibition, measured here: IC50 without meropenem.
Where [2] appears, read: M. tuberculosis H37Rv growth inhibition, measured here: IC90 without meropenem.
[3] abbreviates: measured here: IC90 with meropenem.

For the compound `Cc1ccc(/C=N/NC(=O)c2cccs2)s1`, the IC50 – broadly, the point on the concentration scale where inhibition reaches its midpoint – is > 100 µM (inactive). Besides, under setting [1], the IC50 is > 100 µM. Further, under setting [2], the IC90 (as a rule, the concentration at which the effect reaches the 90% level) was > 100 µM. Under setting [3], the IC90 was > 100 µM.

Consider `O=C(N/N=C/c1c(O)n(Cc2ccc(F)cc2)c(=S)[nH]c1=O)c1ccncc1`, for which the IC50 was 7.75 µM (inactive). This compound also yielded an IC50 under setting [1] of 11.5 µM. Also, the IC90 under setting [2] came out at 12.9 µM. Further, the IC90 under setting [3] came to 9.8 µM.

On to `O=C(CCl)N(c1ccccc1)C1CCS(=O)(=O)C1` (centres undefined), for which the IC50 is 5.77 µM. Also, the IC50 under setting [1] came to 18.2 µM. For the same compound, under setting [2], the IC90 is 55.6 µM. Moreover, the IC90 under setting [3] was 13.9 µM.

Consider `COc1ccc(NC(C)C(=O)N/N=C/c2ccc([N+](=O)[O-])s2)cc1` (centres undefined), for which the IC50 was 2.17 µM (inactive). Under setting [1], the IC50 was found to be 3.12 µM. Moreover, under setting [2], the IC90 stood at 4.8 µM. The same compound registered an IC90 under setting [3] of 4.79 µM.

On to `CSc1ncccc1C(=O)Nc1nc2ccc(Oc3ccccc3)cc2s1`, for which the IC50 was > 100 µM (inactive). Besides, under setting [1], the IC50 was > 100 µM. Besides, the IC90 under setting [2] was > 100 µM. For the same compound, under setting [3], the IC90 was > 100 µM.

As to `CCSc1nnc(NC(=O)Cn2cnc3ccccc3c2=O)s1`, the IC50 is > 100 µM (inactive). Under setting [1], the IC50 was > 100 µM. The IC90 under setting [2] was > 100 µM. The IC90 under setting [3] was > 100 µM.

`Cc1cc(C(=O)CN2C(=O)NC(c3ccccc3)(c3ccccc3)C2=O)c(C)n1Cc1ccccc1`: the IC50 is > 100 µM (inactive). For the same compound, the IC50 under setting [1] was > 100 µM. Also, under setting [2], the IC90 is > 100 µM. For the same compound, under setting [3], the IC90 is > 100 µM.

Turning to `CC(C(=O)Nc1cc([N+](=O)[O-])ccc1Cl)N1CCN(c2ccccc2O)CC1` (centres undefined), the IC50 is > 100 µM (inactive). Also, under setting [1], the IC50 is > 100 µM. Also, under setting [2], the IC90 was > 100 µM. Besides, under setting [3], the IC90 was > 100 µM.

Consider `CCC(C(=O)NC1C(=O)N2C(C(=O)O)=C(CSc3nnc(C)s3)CSC12)c1ccccc1` (centres undefined), for which the IC50 is 0.587 µM. For the same compound, under setting [1], the IC50 is > 100 µM. Further, the IC90 under setting [2] was > 100 µM. This compound came in with an IC90 under setting [3] of 1.57 µM.

Regarding `CCn1cc(C(=O)O)c(=O)c2cc(F)c(N3CCN(C(=S)NC(=O)c4ccccc4C)CC3)cc21`, the IC50 was 10.9 µM (inactive). Under setting [1], this compound returned an IC50 of 19.5 µM. For the same compound, the IC90 under setting [2] was found to be 28.3 µM. Further, the IC90 under setting [3] amounted to 16 µM.

With `O=C(c1ccc(-c2ccc(Cl)cc2)o1)N1CCN(S(=O)(=O)c2cccs2)CC1`, the IC50 is 95.2 µM (inactive). Also, under setting [1], the IC50 was > 100 µM. Moreover, under setting [2], the IC90 is > 100 µM. This compound also came in with an IC90 under setting [3] of 99.6 µM.

As for `O=S(=O)(Cc1ccccc1)c1cnc2ccccc2n1`, the IC50 is 14.1 µM (inactive). For the same compound, the IC50 under setting [1] is 24.3 µM. The IC90 under setting [2] was determined as 26.6 µM. Moreover, under setting [3], the concentration for an effect of 90% (IC90) turned out to be 48.6 µM.

In the case of `CCC(C)C(NC(N)=O)C(=O)Nc1ccc(OCc2ccccc2)cc1` (centres undefined), the IC50 is > 100 µM (inactive). For the same compound, the IC50 under setting [1] is > 100 µM. In addition, the IC90 under setting [2] was > 100 µM. Besides, the IC90 under setting [3] was > 100 µM.

As for `O=C1N/C(=C\c2ccc(O)cc2)C(=O)c2ccccc21`, the IC50 is 21.9 µM. Moreover, the IC50 under setting [1] was 59.6 µM. The IC90 under setting [2] is > 100 µM. Under setting [3], the IC90 is > 100 µM.

On to `O=C(N/N=C/c1cccc(NC(=O)c2ccc(Cl)cc2)c1)c1cccc(O)c1`, for which the IC50 was > 100 µM (inactive). Further, the IC50 under setting [1] was > 100 µM. Besides, the IC90 under setting [2] is > 100 µM. Further, under setting [3], the 90% effect concentration (IC90) is > 100 µM.

As to `Cc1cn([C@@H](CCCCNC(=O)OC(C)(C)C)C(=O)NCCCCCCCCCCC(=O)N2CCN(C(=O)OC(C)(C)C)CC2)nn1`, the IC50 is 97.7 µM (inactive). The IC50 under setting [1] was > 100 µM. The IC90 under setting [2] was > 100 µM. Further, under setting [3], the IC90 was > 100 µM.

As for `N#C/C(=C(/O)COC(=O)CCc1ccc(S(=O)(=O)N2CCOCC2)cc1)c1nc2ccccc2[nH]1`, the IC50 is 46.4 µM (inactive). For the same compound, under setting [1], the IC50 was > 100 µM. Moreover, the IC90 under setting [2] was > 100 µM. For the same compound, the IC90 under setting [3] was > 100 µM.

With `CC(=O)OCC(=O)Nc1ccc(C(C)=O)cc1`, the IC50 was 89.2 µM (inactive). In addition, the IC50 under setting [1] is 95.5 µM. Under setting [2], the IC90 is > 100 µM. Also, the IC90 under setting [3] is > 100 µM.

As for `C=CCSc1nnc(-c2cc3c(-c4ccccc4)nn(C)c3s2)n1C`, the IC50 is 26 µM (inactive). For the same compound, under setting [1], the half-inhibitory concentration (IC50) was determined as 52.4 µM. Under setting [2], this compound came in with an IC90 of 92 µM. The IC90 under setting [3] is > 100 µM.

Consider `CCN(CC)C(=O)Cn1cc(C(=O)C(=O)N2CCN(c3ccccc3)CC2)c2ccccc21`, for which the IC50 is > 100 µM (inactive). Also, the IC50 under setting [1] was > 100 µM. Moreover, the IC90 under setting [2] is > 100 µM. Further, the IC90 under setting [3] was > 100 µM.

`CC(/C=C(\NC(=O)c1ccccc1)C(=O)N=Nc1c(O)[nH]c2ccc(C)cc12)=C\c1ccccc1`: the IC50 is > 100 µM (inactive). The IC50 under setting [1] was > 100 µM. Also, the IC90 under setting [2] is > 100 µM. Also, the IC90 under setting [3] is > 100 µM.
